Measured values published in PubChem BioAssay (NCI).
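All cell lines were grown in 96-well plates and treated with compound for 48 hours. Definition used: TGI = concentration required for complete inhibition of growth.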 Where a SMILES comes first, the peptide text is derived from it. The star is where a group is joined. Boc = CC(C)(C)OC(=O)*; tBu = CC(C)(C)*

Key:
Experiment in all cases: NCI tumour cell line growth inhibition, 48 h
786-0 renal = tested on: 786-0 renal
HCT-15 colon = tested on: HCT-15 colon
IGROV1 ovarian = tested on: IGROV1 ovarian
K-562 leukemia = tested on: K-562 leukemia
NCI-H522 lung = tested on: NCI-H522 lung
SF-539 CNS = tested on: SF-539 CNS
SK-MEL-28 melanoma = tested on: SK-MEL-28 melanoma
SN12C renal = tested on: SN12C renal
HOP-62 NSCLC = tested on: HOP-62 NSCLC
BT-549 breast = tested on: BT-549 breast

SMILES	TGI (786-0 renal) [µM]	TGI (HCT-15 colon) [µM]	TGI (IGROV1 ovarian) [µM]	TGI (K-562 leukemia) [µM]	TGI (NCI-H522 lung) [µM]	TGI (SF-539 CNS) [µM]	TGI (SK-MEL-28 melanoma) [µM]	TGI (SN12C renal) [µM]	TGI (HOP-62 NSCLC) [µM]	TGI (BT-549 breast) [µM]
O=C(NN1C(=O)C(Cl)C1c1c(O)ccc2ccccc12)c1ccccc1O (centres undefined)	> 100	> 100	> 100	> 100	> 100	> 100	> 100	> 100		
O/N=C1\CSc2ccccc2C1	> 100	> 100	> 100	> 100	> 100	> 100	> 100	> 100	> 100	
CC(OC(C)(C)C)C(NC(=O)C(N)CCCCNC(=O)OC(C)(C)C)C(=O)NC(Cc1ccccc1)C(=O)O (centres undefined) (H-Lys(Boc)-Thr(tBu)-Phe-OH; configuration not given here)	> 100	> 100	> 100	> 100		> 100	> 100	> 100	> 100	> 100
COc1ccc(/C=N/n2c(Cc3ccccc3)n[nH]c2=O)cc1	> 100	> 100		> 100		> 100	> 100	> 100	> 100	> 100
O[C@]12c3ccccc3C1CCCCC2N1CCOCC1 (some centres undefined)	> 100	> 100		> 100	> 100		> 100	> 100	> 100	
C/C(CC(=O)Nc1cccc(Cl)c1C)=N\N=C(N)N	> 100	> 100	> 100	> 100	> 100	> 100	> 100	> 100	> 100	
NC(N)=N/N=C\c1c(-c2ccccc2)nc2sccn12	27.1	29.8	27	> 100	24.6	30.2	29.1	28.8	29.1	
CSc1nc(C)cc(=O)n1C1OC(COC(C)=O)C(OC(C)=O)C(OC(C)=O)C1OC(C)=O (centres undefined)	> 100	> 100	> 100	> 100	> 100		> 100	> 100		
COc1ccc2nc(-c3ccc(O)cc3)ccc2c1	> 100		> 100	> 100	> 100	> 100	> 100	> 100	> 100	
Cc1cc(OC(=O)c2c(C)cc(OC(=O)c3c(C)cc(O)cc3O)cc2O)cc(O)c1C(=O)O	> 100		> 100	> 100	> 100	> 100	> 100	> 100	> 100	
O=C1c2ccccc2-n2c1nc1ccc(Cl)cc1c2=O	> 100	> 100	> 100	> 100		> 100		> 100	> 100	> 100
Nc1ncnc2c1ncn2CCOC(c1ccccc1)P(=O)(O)O (centres undefined)	> 100	> 100	> 100		> 100	> 100	> 100	> 100		
O=C(/C=C/c1cccs1)c1ccc([N+](=O)[O-])cc1	> 100	> 100	> 100	> 100		> 100	> 100	> 100	> 100	
O=C([O-])C1([n+]2c(-c3ccccc3)cc(-c3ccccc3)cc2-c2ccccc2)CC1	> 100	> 100	> 100	> 100	> 100	> 100	> 100	> 100	> 100	
CCN(CC)C(=S)S	> 100	> 100	> 100	30.1	0.362	> 100	> 84.6	> 100	> 100	
C=CCCCCCCCCC(=O)ON(Cc1ccc(O)c(OC)c1)C(=O)C(F)(F)F	> 100	> 100	> 100	> 100		> 100	> 100	> 100	> 100	
Cc1cc2c3c(c1)CCCN3CCC2	> 10	> 10	> 10	> 10	> 10	> 10	> 10	> 10	> 10	
C=CC1(O)CCCC=C1COCc1ccccc1 (centres undefined)	> 100	> 100	35.3	> 100	32.4		> 100	> 100	> 100	
CC(=O)OC1CC[C@@]2(C)C(=CC[C@@H]3[C@@H]2CC[C@]2(C)C(OC(C)=O)[C@H](n4ccnc4)C[C@@H]32)C1 (some centres undefined)	> 100	30.6	> 100	86.3	40.9	29.8	31.5	> 100		
Nc1c(C(=O)c2ccccc2)nnc2ccccc12	> 100	> 100	> 100	> 100		87.3	> 100		> 100	72.7
